Reference: ChEMBL document CHEMBL5537201, “Discovery of Unique Bis-Substituted Aromatic Amide Derivatives as Novel Highly Potent Antibiotics for Combating Methicillin-Resistant Staphylococcus aureus (MRSA)” (J Med Chem, 2024)
Converted amounts (≈) assume the structure as drawn. The source made the active and inactive calls. The rule behind the calls is not given here.

Assays:
Staphylococcus aureus [1] = test: Antimicrobial activity against Staphylococcus aureus ATCC6538 assessed as reduction in bacterial growth incubated for 24 hrs by two-fold broth dilution method; assay type: functional
Staphylococcus aureus [2] = test: Antimicrobial activity against Staphylococcus aureus N315 assessed as reduction in bacterial growth incubated for 24 hrs by two-fold broth dilution method; assay type: functional
Streptomyces albus = test: Antimicrobial activity against Streptomyces albus SHBC D11158 assessed as reduction in bacterial growth incubated for 24 hrs by two-fold broth dilution method; assay type: functional
Staphylococcus hominis = test: Antimicrobial activity against methicillin-resistant Staphylococcus hominis assessed as reduction in bacterial growth incubated for 24 hrs by two-fold broth dilution method; assay type: functional
Staphylococcus aureus [3] = test: Bactericidal activity against Staphylococcus aureus ATCC6538 assessed as reduction in survival rate at 5 to 10 times MIC measured within 1 hr by colony counting method; assay type: functional, organism-based
[4] = Hemolytic activity in rabbit Red blood cell assessed as hemolysis incubated for 1 hr by two-fold microdilution method; assay type: toxicity, cell-based, Oryctolagus cuniculus, Erythrocyte; settings: red blood cells (erythrocytes)
[5] = Selectivity index, ratio of HC50 for rabbit Red blood cell to MIC for Staphylococcus aureus ATCC6538; assay type: toxicity; settings: red blood cells (erythrocytes), read-out: Selectivity Index
[6] = Cytotoxicity against African green monkey Vero E6 cells assessed as reduction in cell viability measured after 24 hrs by CCK-8 method; assay type: toxicity, cell-based, Chlorocebus sabaeus, Vero C1008
[7] = Selectivity index, ratio of IC50 for African green monkey Vero E6 cells to MIC for Staphylococcus aureus ATCC6538; assay type: toxicity; settings: read-out: Selectivity Index
HeLa = test: Cytotoxicity against human HeLa cells assessed as reduction in cell viability measured after 24 hrs by CCK-8 method; assay type: functional, cell-based
[8] = Cytotoxicity against human HaCaT cells assessed as reduction in cell viability measured after 24 hrs by CCK-8 method; assay type: toxicity, cell-based
[9] = Cytotoxicity against HEK293 cells assessed as reduction in cell viability measured after 24 hrs by CCK-8 method; assay type: toxicity, cell-based; settings: human
A549 = test: Cytotoxicity against human A549 cells assessed as reduction in cell viability measured after 24 hrs by CCK-8 method; assay type: functional, cell-based; settings: A549, 24 h
Staphylococcus aureus [10] = test: Antimicrobial activity against methicillin resistant Staphylococcus aureus clinical isolate MRS1 assessed as reduction in bacterial growth incubated for 24 hrs by two-fold broth dilution method; assay type: functional
Staphylococcus aureus [11] = test: Antimicrobial activity against methicillin resistant Staphylococcus aureus clinical isolate MRS23 assessed as reduction in bacterial growth incubated for 24 hrs by two-fold broth dilution method; assay type: functional
Staphylococcus aureus [12] = test: Antimicrobial activity against methicillin resistant Staphylococcus aureus clinical isolate MRS70 assessed as reduction in bacterial growth incubated for 24 hrs by two-fold broth dilution method; assay type: functional
Staphylococcus aureus [13] = test: Antimicrobial activity against methicillin resistant Staphylococcus aureus clinical isolate MRS207 assessed as reduction in bacterial growth incubated for 24 hrs by two-fold broth dilution method; assay type: functional
Staphylococcus aureus [14] = test: Antimicrobial activity against methicillin resistant Staphylococcus aureus clinical isolate MRS108 assessed as reduction in bacterial growth incubated for 24 hrs by two-fold broth dilution method; assay type: functional
Staphylococcus aureus [15] = test: Antimicrobial activity against methicillin resistant Staphylococcus aureus clinical isolate MRS152 assessed as reduction in bacterial growth incubated for 24 hrs by two-fold broth dilution method; assay type: functional
Staphylococcus aureus [16] = test: Antimicrobial activity against methicillin resistant Staphylococcus aureus clinical isolate MRS200 assessed as reduction in bacterial growth incubated for 24 hrs by two-fold broth dilution method; assay type: functional
Staphylococcus aureus [17] = test: Antimicrobial activity against methicillin resistant Staphylococcus aureus clinical isolate MRS273 assessed as reduction in bacterial growth incubated for 24 hrs by two-fold broth dilution method; assay type: functional
Staphylococcus aureus [18] = test: Antimicrobial activity against methicillin resistant Staphylococcus aureus clinical isolate MRS153 assessed as reduction in bacterial growth incubated for 24 hrs by two-fold broth dilution method; assay type: functional
Staphylococcus aureus [19] = test: Antimicrobial activity against methicillin resistant Staphylococcus aureus clinical isolate MRS84 assessed as reduction in bacterial growth incubated for 24 hrs by two-fold broth dilution method; assay type: functional
Staphylococcus aureus [20] = test: Antimicrobial activity against methicillin resistant Staphylococcus aureus clinical isolate MRS121 assessed as reduction in bacterial growth incubated for 24 hrs by two-fold broth dilution method; assay type: functional
Staphylococcus aureus [21] = test: Antimicrobial activity against methicillin resistant Staphylococcus aureus clinical isolate MRS97 assessed as reduction in bacterial growth incubated for 24 hrs by two-fold broth dilution method; assay type: functional
Staphylococcus aureus [22] = test: Induction of drug resistance in Staphylococcus aureus ATCC6538 assessed as change in MIC measured after 10 passages; assay type: functional
Staphylococcus aureus [23] = test: Bactericidal activity against Staphylococcus aureus ATCC6538 assessed as reduction in survival rate at 5 to 10 times MIC measured after 30 to 120 mins by colony counting method relative to control; assay type: functional; settings: time 30-120 min

Row | SMILES | MIC (Staphylococcus aureus [1]) [µg/mL] | MIC (Staphylococcus aureus [2]) [µg/mL] | MIC (Streptomyces albus) [µg/mL] | MIC (Staphylococcus hominis) [µg/mL] | HC50 at 1 h [4] [µg/mL] | selectivity ratio [5] | IC50 at 24 h [6] [µg/mL] | selectivity ratio [7] | IC50 (HeLa) [µg/mL] | IC50 at 24 h [8] [µg/mL] | IC50 at 24 h [9] [µg/mL] | IC50 (A549) [µg/mL] | MIC (Staphylococcus aureus [10]) [µg/mL] | MIC (Staphylococcus aureus [11]) [µg/mL] | MIC (Staphylococcus aureus [12]) [µg/mL] | MIC (Staphylococcus aureus [13]) [µg/mL] | MIC (Staphylococcus aureus [14]) [µg/mL] | MIC (Staphylococcus aureus [15]) [µg/mL] | MIC (Staphylococcus aureus [16]) [µg/mL] | MIC (Staphylococcus aureus [17]) [µg/mL] | other results
1 | O=C(CCC(F)(F)F)N(Cc1cc2ccccc2s1)c1cc(-c2cccc(C(F)(F)F)c2)ccc1O | 1 (≈ 1.91 µM) | 2 (≈ 3.82 µM) | 2 (≈ 3.82 µM) | 2 (≈ 3.82 µM) | 3280 | > 1000 | 20.3 (≈ 38.8 µM) | 20 | 13.4 (≈ 25.5 µM) | 13 (≈ 24.8 µM) | 12.2 (≈ 23.4 µM) | 12.5 (≈ 23.9 µM) | 3 (≈ 5.73 µM) | 6 (≈ 11.5 µM) | 6 (≈ 11.5 µM) | 6 (≈ 11.5 µM) | 6 (≈ 11.5 µM) | > 16 | 6 (≈ 11.5 µM) | 3 (≈ 5.73 µM) | Activity (Staphylococcus aureus [3]): Active; MIC (Staphylococcus aureus [18]): 6 µg/mL (≈ 11.5 µM); MIC (Staphylococcus aureus [19]): 3 µg/mL (≈ 5.73 µM); MIC (Staphylococcus aureus [20]): 3 µg/mL (≈ 5.73 µM); MIC (Staphylococcus aureus [21]): 3 µg/mL (≈ 5.73 µM); Activity (Staphylococcus aureus [22]): inactive
2 | O=C(CCC(F)(F)F)N(Cc1cc2ccccc2s1)c1cc(-c2ccccc2)ccc1O | 1 (≈ 2.2 µM) | 2 (≈ 4.39 µM) | 4 (≈ 8.78 µM) | 6 (≈ 13.2 µM) | 1770 | > 1000 | 22.9 (≈ 50.3 µM) | 22 | > 25 | > 25 | 7.8 (≈ 17.1 µM) | 10.7 (≈ 23.5 µM) | 3 (≈ 6.59 µM) | 3 (≈ 6.59 µM) | 3 (≈ 6.59 µM) | 2 (≈ 4.39 µM) | 2 (≈ 4.39 µM) | 2 (≈ 4.39 µM) | 3 (≈ 6.59 µM) | 3 (≈ 6.59 µM) | Survival (Staphylococcus aureus [23]): <1%; MIC (Staphylococcus aureus [18]): 3 µg/mL (≈ 6.59 µM); MIC (Staphylococcus aureus [19]): 2 µg/mL (≈ 4.39 µM); MIC (Staphylococcus aureus [20]): 3 µg/mL (≈ 6.59 µM); MIC (Staphylococcus aureus [21]): 2 µg/mL (≈ 4.39 µM); Activity (Staphylococcus aureus [22]): inactive
3 | O=C(CCC(F)(F)F)N(Cc1cc2ccccc2s1)c1cc(-c2ccc(F)cc2)ccc1O | 1 (≈ 2.11 µM) | 1 (≈ 2.11 µM) | 16 (≈ 33.8 µM) | 8 (≈ 16.9 µM) | 2150 | > 1000 | 17.3 (≈ 36.6 µM) | 18 | 16.7 (≈ 35.3 µM) | 14.7 (≈ 31 µM) | 20.7 (≈ 43.8 µM) | 10 (≈ 21.1 µM) | 6 (≈ 12.7 µM) | 2 (≈ 4.22 µM) | 6 (≈ 12.7 µM) | 3 (≈ 6.34 µM) | 2 (≈ 4.22 µM) | 6 (≈ 12.7 µM) | 6 (≈ 12.7 µM) | 2 (≈ 4.22 µM) | Survival (Staphylococcus aureus [23]): <1%; MIC (Staphylococcus aureus [18]): 2 µg/mL (≈ 4.22 µM); MIC (Staphylococcus aureus [19]): 2 µg/mL (≈ 4.22 µM); MIC (Staphylococcus aureus [20]): 2 µg/mL (≈ 4.22 µM); MIC (Staphylococcus aureus [21]): 2 µg/mL (≈ 4.22 µM); Activity (Staphylococcus aureus [22]): inactive
